# From article PMC8196563, “Trichilones A–E: New Limonoids from Trichilia adolfi” (Molecules, 2021)
# Read-outs that look alike come from different tables or passages of the source.
# Legend:
# [1] = tested on: L. braziliensis promastigotes; assay: In vitro leishmanicidal activity against promastigotes; format: cell-based; details: Leishmania braziliensis, 72 h, read-out: Leishmanicidal activity L.b, IC50
# Description: (§1) Leishmanicidal activity was assayed according to Williams, with some modi-fication. Promastigotes of Leishmania: L. amazonensis, Clone 1, NHOM-BR-76-LTB-012 (Lma, donated by the Paul Sabatier Université, France) and L. braziliensis M2904 C192 RJA (M2904, donated by Dr. Jorge Arévalo from Universidad Peruana Cayetano Heredia, Peru). The strains were cultured in Schneider’s insect medium (pH 6.2), supplemented with 10% FBS and incubated in 96-microwell plates at 26 °C. Briefly, promastigotes in logarithmic phase of growth, at concentration of […], were exposed to samples dissolved in DMSO (1%) at different concentrations (3.1–100 μg/mL). Miltefosine (3.1–100 μg/mL, IDPS, France) was used as a positive control drug. The microwell plates were incubated for 72 h at 26 °C, the optical density of each well was measured and the IC50 values calculated. All assays were performed in triplicate.
# [2] = Cytotoxicity in murine macrophage cells (resazurin); format: cell-based; details: mouse, Raw 264.7 macrophage cells, Raw 264.7 murine macrophage cells, triplicate
# Description: The Raw 264.7 murine macrophage cell line was purchased from the American Type Culture Collection (ATCC-TIB71) (Manassas, VA, USA). The cells were maintained in DMEM-HG medium supplemented with 10% fetal bovine serum, 100 U/mL of penicillin and 100 μg/mL of streptomycin and sodium bicarbonate (2.2 g/L) in humidified atmosphere at 37 °C with 5% CO2. Samples were prepared as described above and added (in […]) at different concentrations (6.2–200 μg/mL). Medium blank, control drugs and cell growth controls were included to evaluate cell viability. The plates were incubated for 72 h at 37 °C with 5% CO2. After incubation for the indicated time, the cells were washed, after which 10 μL of Resazurin reagent (2.0 mM) was added. They were further incubated at 37 °C for 3 h in a humidified incubator. The IC50 values were assessed using a fluorometric reader (540 nm excitation, 590 nm emission) and Gen5 software. All assays were performed in triplicate.
# [3] = tested on: Leishmania amazonensis promastigotes; assay: In vitro leishmanicidal activity against promastigotes; format: cell-based; details: 72 h, read-out: Leishmanicidal activity L.a, IC50
# Description: as §1
# [4] = L. braziliensis M2904 C192 RJA promastigotes, 26 °C, triplicate
# [5] = L. amazonensis Clone 1 NHOM-BR-76-LTB-012 promastigotes, 26 °C, triplicate
melting point,SMILES,"IC50 [1, 4]",IC50 at 72 h [2],"IC50 [3, 5]",IC50 [1],IC50 [3]
143 °C,"COC(=O)CC1C(C)(C)OC(=O)CC2OC3(C)C4C(=O)CC(c5ccoc5)C4(C)C(OC(C)=O)C(OC(=O)C(C)C)C3C21C (stereo not drawn) [Compound 1, Trichilone A]",58 ± 18 µg/mL,42 ± 0.9 µg/mL,–,–,–
–,"CCC(C)C(=O)OC1C(OC(C)=O)C2(C)C(c3ccoc3)CC(=O)C2C2(C)OC3CC(=O)OC(C)(C)C(CC(=O)OC)C3(C)C12 (stereo not drawn) [Compound 2, Trichilone B]",70.1 ± 3 µg/mL,30 ± 10 µg/mL,> 100 µg/mL,–,–
–,"COC(=O)CC1C(C)(C)OC(=O)C=C2OC3(C)C(C(OC(C)=O)C(OC(C)=O)C4(C)C(c5ccoc5)CC(=O)C34)C21C (stereo not drawn) [Compound 4, Trichilone D]",98.5 ± 1.5 µg/mL,94.1 ± 4.2 µg/mL,> 100 µg/mL,–,–
–,"COC(=O)CC1C(C)(C)OC(=O)C=C2OC3(C)C(C(OC(=O)C(C)C)C(OC(C)=O)C4(C)C(c5ccoc5)CC(=O)C34)C21C (stereo not drawn) [Compound 5, Trichilone E]",68.1 ± 6 µg/mL,41.5 ± 24 µg/mL,92 ± 7 µg/mL,–,–
–,"CCCCCCCCCCCCCCCCOP(=O)([O-])OCC[N+](C)(C)C [Miltefosine, reference compound]",4.07 ± 0.5 µg/mL,21 ± 2 µg/mL,5 ± 0.2 µg/mL,–,–
–,"CCC(C)C(=O)OC1C(OC(C)=O)C2(C)C(c3ccoc3)CC(=O)C2C2(C)OC3CC(=O)OC(C)(C)C(CC(=O)OC)C3(C)C12O (stereo not drawn) [Compound 3, Trichilone C]",–,60 ± 17 µg/mL,–,87.2 ± 13 µg/mL,> 100 µg/mL
